Read-outs that look alike come from different tables or passages of the source.
Experiments:
AGT [1] = assay: AGT depletion (general statements)
[2] = background; agents under development; cited from earlier work
prostate tumors = settings: rats bearing prostate tumors; O^6-benzylguanine one hour prior to BCNU, or BCNU alone at equal dose; cited from earlier work
[3] = target: T1, alkyltransferase (AGT), HT29 cells (Homo sapiens, UniProt P16455); assay: AGT depletion/inactivation in intact HT29 cells; format: cell-based
T1 construct: human colon tumor cells HT29 and intact HT29 cells; endogenous in cells; host or cells: HT29 human colon tumor cells, intact
T1 sequence (P16455 1-207): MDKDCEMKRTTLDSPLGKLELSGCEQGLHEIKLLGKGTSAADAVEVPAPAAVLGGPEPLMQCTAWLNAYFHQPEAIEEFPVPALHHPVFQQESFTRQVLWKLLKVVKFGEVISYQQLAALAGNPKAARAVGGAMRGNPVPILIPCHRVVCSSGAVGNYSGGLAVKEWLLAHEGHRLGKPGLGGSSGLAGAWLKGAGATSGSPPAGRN
Experimental: After four hours, cells were harvested and frozen at -80° C. until analysis for AGT.

[4] = target: T2, alkyltransferase (AGT), HT29 cell-free extract (Homo sapiens, UniProt P16455); assay: biochemical
T2 sequence (P16455 1-207): T1 sequence (P16455 1-207)

[5] = Conversion to O^6-benzylguanine / stability in vitro and in cell cultures; format: in vitro ADME
[6] = Stability in alkaline solution (UV at pH 13); format: physicochemical; settings: pH 13, UV measurement
Experimental: The reaction mixture was stirred at 0° C. for 30 min at which time the ice bath was removed and the reaction was allowed to proceed overnight at room temperature. At this point, a water-ice mixture (~5 ml) was added to the flask with vigorous stirring for 5 minutes.

AGT [7] = settings: cited from earlier work; for AGT depletion (shown previously): literature
tumor cells = settings: cited from earlier work
pancreatic beta cells = settings: cited from earlier work
pancreatic tumors = settings: background; cited from earlier work
[8] = tested on: malignant melanomas, brain tumors and mycosis fungoides; settings: background; cited from earlier work
[9] = tested on: active melanin producing cells such as melanoma cells; settings: cited from earlier work
[10] = HT29 cells, 4 h incubation, 50% inactivation (Table 2), read-out: ED50 In cells
[11] = HT29 cell-free extract, 30 min incubation, 50% inactivation (Table 2), read-out: ED50 In cell-free extract

Nc1nc(OCc2ccccc2)c2ncn(CC(=O)[O-])c2n1.[Na+]
AGT depletion characteristics (AGT [1]): exhibit AGT depletion characteristics

O=NN(CCCl)C(=O)NCCO [1-(2-chloroethyl)-3-(2-hydroxyethyl)-1-nitrosourea]
side effects [2]: fewer side effects

O=NN(CCCl)C(=O)NCCCl [BCNU, 1,3-bis(2-chloroethyl)-1-nitrosourea]
regression in tumor growth (prostate tumors): not observed

CS(=O)(=O)CS(=O)(=O)OCCCl [Clomesone, 2-chloroethylmethylsulfonylmethanesulfonate]
side effects [2]: fewer side effects

CCOC(=O)Cn1cnc2c(OCc3ccccc3)nc(N)nc21 [Example 3b, 2-Amino-6-benzyloxy-9-carboethoxymethylpurine]
IC50 [3, 10]: 3 µM | AGT depletion characteristics (AGT [1]): exhibit AGT depletion characteristics | IC50 [4, 11]: 30 µM

NC(=O)Cn1cnc2c(OCc3ccccc3)nc(N)nc21 [Example 4b, 2-Amino-6-benzyloxy-9-carbamoylmethylpurine]
AGT depletion characteristics (AGT [1]): exhibit AGT depletion characteristics

CCC(O)Cn1cnc2c(OCc3ccccc3)nc(N)nc21 (stereo not shown) [Example 5b, 2-Amino-6-benzyloxy-9-(2-hydroxybutyl)purine]
AGT depletion characteristics (AGT [1]): exhibit AGT depletion characteristics

N#CCn1cnc2c(OCc3ccccc3)nc(N)nc21 [Example 6b, 2-Amino-6-benzyloxy-9-cyanomethylpurine]
AGT depletion characteristics (AGT [1]): exhibit AGT depletion characteristics

CC(C)(C)C(=O)OCn1cnc2c(OCc3ccccc3)nc(N)nc21 [Example 7, 2-Amino-6-benzyloxy-9-pivaloyloxymethylpurine]
conversion by esterases in cell cultures ([5]; cell cultures): Converted to O^6benzylguanine by esterases in cell cultures | stability in vitro ([5]; in vitro): stable in vitro

CC(=O)OC[C@H]1OC(OC(C)=O)[C@H](NC(=O)Cn2cnc3c(OCc4ccccc4)nc(N)nc32)[C@@H](OC(C)=O)[C@@H]1OC(C)=O (stereo partly drawn) [Example 8, 2-Amino-6-benzyloxy-9-{N-[2-deoxy-2-(1,3,4,6-tetra-O-acetyl)-D-glucopyranosyl]carbamoylmethyl}purine]
AGT depletion characteristics (AGT [1]): exhibit AGT depletion characteristics

CC(=O)n1cnc2c(OCc3ccccc3)nc(N)nc21 [Example 13, 9-Acetyl-O^6-benzylguanine]
decomposition at pH 13 [6]: decomposes to O^6 -benzylguanine | conversion by hydrolysis ([5]; in vitro and in cultures): Converted to O^6benzylguanine by hydrolysis

C[C@]12CC[C@H]3[C@@H](CCC4=CC(=O)CC[C@@]43C)[C@@H]1CC[C@@H]2OC(=O)Cn1cnc2c(OCc3ccccc3)nc(N)nc21 [Example 20, O^6 -Benzyl-9-(4-androsten-3-one-17β-oxycarbonylmethyl) guanine]
IC50 [3]: 0.5 µM | IC50 [4]: 5 µM

C[C@]12CCC(=O)C[C@@H]1CC[C@@H]1[C@@H]2CC[C@]2(C)[C@@H](OC(=O)Cn3cnc4c(OCc5ccccc5)nc(N)nc43)CC[C@@H]12 [Example 22, O^6 -Benzyl-9-(5α-androstan-3-one-17β-oxycarbonylmethyl) guanine]
IC50 [3]: 0.5 µM | IC50 [4]: 4 µM

CCOP(=O)(OCC)C(C)NC(=O)N(CCCl)N=O (stereo not shown) [Fotemustine, 1-[N-(2-chloroethyl)-N-nitrosoureido]ethylphosphonic acid diethyl ester]
side effects [2]: fewer side effects

Nc1nc(OCc2ccc(Cl)cc2)c2nc[nH]c2n1 [O^6 -(p-chlorobenzyl)guanine, O^6 -(p-chlorobenzyl) guanine]
IC50 [3, 10]: 0.08 µM | potency as AGT depleter (AGT [7]): more potent | AGT depletion (shown previously) (AGT [7]): effective in depleting AGT | IC50 [4, 11]: 0.2 µM | enhancement in the cytotoxic response to alkylating agents (tumor cells): enhancement in the cytotoxic response to chemotherapeutic alkylating agents

Nc1nc(OCc2ccc(Cl)cc2)c2ncn([C@@H]3O[C@H](CO)[C@@H](O)[C@H]3O)c2n1 [O^6 -(p-chlorobenzyl)guanosine]
IC50 [3, 10]: 5 µM | AGT depletion (shown previously) (AGT [7]): effective in depleting AGT | IC50 [4, 11]: 10 µM

Nc1nc(OCc2ccc(F)cc2)c2nc[nH]c2n1 [O^6 -(p-fluorobenzyl)guanine, O^6 -(p-fluorobenzyl) guanine]
AGT depletion (shown previously) (AGT [7]): effective in depleting AGT | IC50 [4, 11]: 0.2 µM

Cc1ccc(COc2nc(N)nc3nc[nH]c23)cc1 [O^6 -(p-methylbenzyl)guanine]
IC50 [3, 10]: 0.08 µM | potency as AGT depleter (AGT [7]): more potent | AGT depletion (shown previously) (AGT [7]): effective in depleting AGT | IC50 [4, 11]: 0.2 µM | enhancement in the cytotoxic response to alkylating agents (tumor cells): enhancement in the cytotoxic response to chemotherapeutic alkylating agents

Cc1ccc(COc2nc(N)nc3c2ncn3[C@@H]2O[C@H](CO)[C@@H](O)[C@H]2O)cc1 [O^6 -(p-methylbenzyl)guanosine, O^6 - (p-methylbenzyl)guanosine]
IC50 [3, 10]: 3 µM | AGT depletion (shown previously) (AGT [7]): effective in depleting AGT | IC50 [4, 11]: 9 µM

C=CCOc1nc(N)nc2nc[nH]c12 [O^6 -allylguanine, O^6 -Allylguanine]
IC50 [3]: 4 µM | IC50 [4]: 20 µM

Nc1nc(OCc2ccccc2)c2ncn([C@@H]3O[C@H](CO)[C@@H](O)[C@H]3O)c2n1 [O^6 -benzylguanosine]
IC50 [3, 10]: 2 µM | AGT depletion (shown previously) (AGT [7]): effective in depleting AGT | IC50 [4, 11]: 11 µM

COc1nc(N)nc2nc[nH]c12 [O^6 -methylguanine]
IC50 [3, 10]: 120 µM | potency as AGT depleter (AGT [7]): weak | IC50 [4, 11]: 350 µM | enhancement in the cytotoxic response to alkylating agents (tumor cells): enhancement in the cytotoxic response to chemotherapeutic alkylating agents

Nc1nc(OCc2ccccc2)c2ncn([C@H]3C[C@H](O)[C@@H](CO)O3)c2n1 [O^6-benzyl-2'-deoxyguanosine]
IC50 [3, 10]: 0.5 µM | AGT depletion (shown previously) (AGT [7]): effective in depleting AGT | IC50 [4, 11]: 2 µM

CN(N=O)C(=O)N[C@H]1C(O)O[C@H](CO)[C@@H](O)[C@@H]1O (stereo partly drawn) [Streptozotocin, 2-deoxy-2-(3-methyl-3-nitrosoureido)-D-glucopyranose]
selective destruction of pancreatic beta cells (pancreatic beta cells): selectively destructive to pancreatic beta cells | effectiveness against pancreatic tumors (pancreatic tumors): effective

Cn1nnc2c(C(N)=O)ncn2c1=O [Temozolomide, 8-carbamoyl-3-methylimidazo[5,1-d]-1,2,3,5-tetrazin-4-(3H)-one]
activity against malignant melanomas, brain tumors and mycosis fungoides [8]: active

O=c1cc[nH]c(=S)[nH]1 [Thiouracil]
accumulation in active melanin producing cells [9]: accumulates readily in active melanin producing cells such as melanoma cells

Nc1nc(OCc2ccccc2)c2ncn(CC(=O)[O-])c2n1.[Na+] [sodium salt]
IC50 [4, 11]: 157 µM

— patent publication US5691307A, “O^6 -substituted guanine compositions and methods for depleting O^6” (The United States of America as represented by the …, priority 1994, dated 1997)
